Source: patent US20060089499A1, “Pyrazolopyrimidines and the use thereof for controlling harmful organisms” (priority 2002, published 2006)

Tests used:
Assay type in all cases: in vivo
Venturia inaequalis = experiment: Venturia test (apple)/protective; settings: topical, 240 h, protective, application rate 100 g/ha, evaluation 10 days after inoculation, read-out: Efficacy in %
Protocol: Venturia Test (Apple)/Protective [table] To produce a suitable preparation of active compound, 1 part by weight of active compound is mixed with the stated amounts of solvent and emulsifier, and the concentrate is diluted with water to the desired concentration. To test for protective activity, young plants are sprayed with the preparation of active compound at the stated application rate. After the spray coating has dried on, the plants are inoculated with an aqueous conidia suspension of the apple scab pathogen Venturia inaequalis and then remain in an incubation cabin at about 20° C. and 100% relative atmospheric humidity for 1 day. The plants are then placed in a greenhouse at about 21° C. and a relative atmospheric humidity of about 90%.

Alternaria solani = experiment: Alternaria test (tomato)/protective; settings: protective, application rate 750 g/ha, evaluation 7 days after inoculation
Protocol: (Tomato)/Protective [table] To produce a suitable preparation of active compound, 1 part by weight of active compound is mixed with the stated amounts of solvent and emulsifier, and the concentrate is diluted with water to the desired concentration. To test for protective activity, young tomato plants are sprayed with the preparation of active compound at the stated application rate. 1 day after the treatment, the plants are inoculated with a spore suspension of Alternaria solani and then remain at 100% rel. humidity and 20° C. for 24 h. The plants then remain at 96% rel. atmospheric humidity and a temperature of 20° C.

[1] = tested on: Fusarium nivale (var. majus); experiment: Fusarium nivale (var. majus) test (wheat)/protective; settings: protective, application rate 500 g/ha, evaluation 6 days after inoculation
Protocol: Fusarium nivale (var. majus) Test (Wheat)/Protective [table] To produce a suitable preparation of active compound, 1 part by weight of active compound is mixed with the stated amounts of solvent and emulsifier, and the concentrate is diluted with water to the desired concentration. To test for protective activity, young plants are sprayed with the preparation of active compound at the stated application rate. After the spray coating has dried on, the plants are sprayed with a conidia suspension of Fusarium nivale (var. majus). The plants are placed in a greenhouse under transparent incubation hoods at a temperature of about 15° C. and a relative atmospheric humidity of about 100%.

Pyricularia oryzae = settings: rice, protective, application rate 500 g/ha, evaluation 6 days after inoculation
[2] = tested on: diamondback moth (Plutella xyostella); experiment: Plutella test (plant-damaging insects); settings: 1000 ppm active compound on synthetic feed, eggs/larvae
Protocol: Plutella Test [table] To produce a suitable preparation of active compound, 1 part by weight of active compound is mixed with the stated amount of solvent, and the concentrate is diluted with methanol to the desired concentrations. A stated amount of preparation of active compound of the desired concentration is pipetted onto a standardized amount of synthetic feed. After the methanol has evaporated, about 200-300 eggs of the diamondback moth (Plutella xyostella) are placed onto the feed. After the desired period of time, the kill of the eggs or larvae in % is determined. 100% means that all animals have been killed; 0% means that none of the animals has been killed.

How did the pest or weed control at 100 g/ha (Venturia inaequalis) turn out when `CC(Nc1c(-c2ccc(F)cc2Cl)c(Cl)nc2c(C#N)cnn12)C(F)(F)F` (stereo not shown) [drawing 103] was run?
Its pest or weed control at 100 g/ha is 93%.

How did the pest or weed control at 100 g/ha (Venturia inaequalis) turn out when `C[C@H](Nc1c(-c2ccc(F)cc2Cl)c(Cl)nc2c(C#N)cnn12)C(F)(F)F` [drawing 104] was run?
The pest or weed control at 100 g/ha was 100%.

For `CC(C)CN(C)c1c(-c2ccccc2Cl)c(Cl)nc2c(C#N)cnn12` [drawing 105], which pest or weed control at 100 g/ha (Venturia inaequalis) is on record?
The pest or weed control at 100 g/ha was 100%.

How did the pest or weed control at 100 g/ha (Venturia inaequalis) turn out when `CC1CCN(c2c(-c3ccccc3Cl)c(Cl)nc3c(C#N)cnn23)CC1` [drawing 106] was run?
Its pest or weed control at 100 g/ha is 99%.

`N#Cc1cnn2c(N3CCC(F)CC3)c(-c3c(F)cccc3Cl)c(Cl)nc12` [drawing 107] was tested. Which pest or weed control at 100 g/ha (Venturia inaequalis) did it give?
The pest or weed control at 100 g/ha was 98%.

Which pest or weed control at 100 g/ha (Venturia inaequalis) does the source give for `CC(C)CN(C)c1c(-c2c(F)cccc2Cl)c(Cl)nc2c(C#N)cnn12` [drawing 108] here?
Its pest or weed control at 100 g/ha is 99%.

Which pest or weed control at 100 g/ha (Venturia inaequalis) does the source give for `C=C(C)CN(CC)c1c(-c2c(F)cccc2Cl)c(Cl)nc2c(C#N)cnn12` [drawing 109] here?
Its pest or weed control at 100 g/ha is 100%.

`C[C@H](Nc1c(-c2c(F)cccc2Cl)c(Cl)nc2c(C#N)cnn12)C(F)(F)F` [drawing 110] was tested. Which pest or weed control at 100 g/ha (Venturia inaequalis) did it give?
The pest or weed control at 100 g/ha was 100%.

How did the Efficacy in % (Alternaria solani) turn out when `N#Cc1cnn2c(N3CCOCC3)c(-c3c(F)cccc3Cl)c(Cl)nc12` [drawing 131] was run?
The Efficacy in % was 95%.

Which Efficacy in % (Alternaria solani) does the source give for `N#Cc1cnn2c(N3CCCCC3)c(-c3c(F)cccc3Cl)c(Cl)nc12` [drawing 132] here?
The Efficacy in % was 95%.

`CC(C)CNc1c(-c2ccc(F)cc2F)c(Cl)nc2c(C#N)cnn12` [drawing 133] was tested. Which Efficacy in % (Alternaria solani) did it give?
Its Efficacy in % is 95%.

With `C=C(C)CN(CC)c1c(-c2c(F)cc(F)cc2F)c(Cl)nc2c(C#N)cnn12` [drawing 134] as the compound, how does the Efficacy in % (Alternaria solani) read?
The Efficacy in % was 95%.

How did the Efficacy in % (Alternaria solani) turn out when `C[C@H](Nc1c(-c2c(F)cc(F)cc2F)c(Cl)nc2c(C#N)cnn12)C(F)(F)F` [drawing 135] was run?
Its Efficacy in % is 95%.

How did the Efficacy in % (Alternaria solani) turn out when `N#Cc1cnn2c(N3CCC(F)(F)CC3)c(-c3c(F)cc(F)cc3F)c(Cl)nc12` [drawing 136] was run?
Its Efficacy in % is 90%.

For `CC(Nc1c(-c2ccc(F)cc2Cl)c(Cl)nc2c(C#N)cnn12)C(F)(F)F` (stereo not shown) [drawing 137], which Efficacy in % [1] is on record?
The Efficacy in % was 88%.

How did the Efficacy in % [1] turn out when `C=C(C)CN(CC)c1c(-c2c(F)cc(F)cc2F)c(Cl)nc2c(C#N)cnn12` [drawing 138] was run?
Its Efficacy in % is 100%.

Which Efficacy in % [1] does the source give for `C[C@H](Nc1c(-c2c(F)cc(F)cc2F)c(Cl)nc2c(Cl)cnn12)C(F)(F)F` [drawing 139] here?
The Efficacy in % was 80%.

For `C[C@H](Nc1c(-c2c(F)cc(F)cc2F)c(Cl)nc2c(Cl)cnn12)C(F)(F)F` [drawing 140], which Efficacy in % (Pyricularia oryzae) is on record?
The Efficacy in % was 88%.

With `C[C@H](Nc1c(-c2c(F)cc(F)cc2F)c(Cl)nc2c(C#N)cnn12)C(F)(F)F` [drawing 141] as the compound, how does the Efficacy in % (Pyricularia oryzae) read?
Its Efficacy in % is 88%.

Which Efficacy in % (Pyricularia oryzae) does the source give for `N#Cc1cnn2c(NCC3CC3)c(-c3c(F)cc(F)cc3F)c(Cl)nc12` [drawing 142] here?
The Efficacy in % was 86%.

`C[C@H](Nc1c(-c2ccccc2F)c(Cl)nc2c(C#N)cnn12)C(F)(F)F` [drawing 143] was tested. Which Efficacy in % (Pyricularia oryzae) did it give?
The Efficacy in % was 75%.

How did the “Kill rate in % after 7^d” value [2] turn out when `CC(Nc1c(-c2ccc(F)cc2Cl)c(Cl)nc2c(C#N)cnn12)C(F)(F)F` (stereo not shown) [drawing 144] was run?
The value was 100%.
